Measurements: patent US20220125983A1, “MALODOR COUNTERACTING COMPOSITION AND AGENT AND THE USE THEREOF” (CHEMCOM S.A., priority 2019, published 2022)

Columns and labels:
[1] = tested on: perception of the earthy olfactory note; assay: Sensory test: expert panel rating of odor intensity of earthy compounds without and with nefopam (Tedlar bags); assay type: in vivo, human; details: for Odor intensity without Nefopam, note A: earthy: scale 0 (no odor) to 5 (saturating odor), resolution 0.5, panel of five assessors; for Odor intensity of Geosmin with nefopam enantiomer as blocker, note A: earthy / Odor intensity of Geosmin with nefopam enantiomer as blocker, note B: camphoreous: Geosmin + enantiomer free base
Description: The composition comprising nefopam was prepared by diluting racemic nefopam in its free base form in ethanol at a concentration of 107 mg/ml The test comprised in a first step, microinjecting the earthy compound, nefopam or earthy compound+nefopam in 20 L TedlarTM bags specially conceived for gas sampling, previously loaded with a known volume of pure air (from oil free compressor with additional charcoal filters). The earthy compounds were solubilized in ethanol at a suitable concentration (see table 2) and injected in the 20 L […] bag. The final concentration in the bag varied between 7 mg/m^3' to 383 mg/m^3, (table 2), depending on the odor strength of the compound while the concentration of nefopam in the bags was fixed at 54 mg/m^3. [table] The odor presentation device comprised a cylinder filled with clean air. The bag was inserted in the cylinder and connected to a sampling installation in the cylinder by means of a valve. By controlled injection of clean air into the cylinder, the interior pressure was raised and the sampling air was pressed in a controlled manner out of the sample container through the opened valve. This sampling air was transferred to the nose of the corresponding sensory odor panel member by means of a funnel. By this means, each sensory odor panel member received an identical sample with a standardized volume flow and a constant provision time. The outlet flow rate was between 10-20 L/min (in order to avoid any mixing with ambient air before reaching the nose). The expert panel of five assessors entered the room 15 minutes before starting the test. The basic standard test was a rating in intensity and the use of the closest chemical descriptors according to the following order of presentation: 1. earthy compound 2. Mix: earthy compound (at same concentrations as for 1)+Nefopam. Each assessor could smell for few seconds. A pause of minimum 1 minute was considered between presentations. The individual rating was done with a resolution of 0.5 on a scale ranging from 0 (no odor) to 5 (saturating odor). Both enantiomers of nefopam, (+)-nefopam and (-)-nefopam in their free base from obtained as described in examples 1 and 2, respectively, were assessed separately as blockers of the perception of the earthy note of geosmin, using the same procedure as described in example 3.

human nose = details: as low as; cited from earlier work
[2] = Example 4, Geosmin alone, same procedure as example 3, scale 0 to 5
[3] = earthy compound alone in bag at Table 2 concentration
[4] = earthy compound alone in bag at Table 2 concentration, scale 0 to 5
[5] = 2-ethylfenchol 188 mg/m^3 + racemic nefopam free base 54 mg/m^3 in bag, scale 0 to 5
[6] = 2-methylisoborneol 150 mg/m^3 + racemic nefopam free base 54 mg/m^3 in bag, scale 0 to 5
[7] = Ambrinol R 29 mg/m^3 + racemic nefopam free base 54 mg/m^3 in bag, scale 0 to 5
[8] = Ambrinol S 26 mg/m^3 + racemic nefopam free base 54 mg/m^3 in bag, scale 0 to 5
[9] = Ambrinol racemic 25 mg/m^3 + racemic nefopam free base 54 mg/m^3 in bag, scale 0 to 5
[10] = Geosmin 19 mg/m^3 + racemic nefopam free base 54 mg/m^3 in bag, scale 0 to 5
[11] = Huminol 11 mg/m^3 + racemic nefopam free base 54 mg/m^3 in bag, scale 0 to 5
[12] = Methyl geosmin 7 mg/m^3 + racemic nefopam free base 54 mg/m^3 in bag, scale 0 to 5
[13] = Patchouli oil 383 mg/m^3 + racemic nefopam free base 54 mg/m^3 in bag, scale 0 to 5
[14] = earthy compounds of Table 3, nefopam 54 mg/m^3
[15] = Example 4, same procedure as example 3, scale 0 to 5

CC1CCCC2(C)CCCCC12O (centres unmarked) [Geosmin, 4,8a-dimethyl-1,2,3,4,5,6,7,8-octahydronaphthalen-4a-ol]
Odor intensity without blocker, note A: earthy [1, 2]: 3
Odor intensity without blocker, note B: camphoreous [1, 2]: 3
Odor intensity without Nefopam, note A: earthy [1, 3]: 3
Odor intensity without Nefopam, note B: camphoreous [1, 4]: 3
Detection threshold (human nose) (human nose): 10 ng/L

CN1CCOC(c2ccccc2)c2ccccc2C1 (racemic) [Nefopam, (RS)-5-methyl-1-phenyl-1,3,4,6-tetrahydro-2,5-benzoxazocine]
Odor intensity with Nefopam, 2-ethylfenchol note A: earthy [1, 5]: 0
Odor intensity with Nefopam, 2-ethylfenchol note B: camphoreous [1, 5]: 3
Odor intensity with Nefopam, 2-methylisoborneol note A: earthy [1, 6]: 0
Odor intensity with Nefopam, 2-methylisoborneol note B: camphoreous [1, 6]: 2.5
Odor intensity with Nefopam, Ambrinol R note A: earthy [1, 7]: 0.5
Odor intensity with Nefopam, Ambrinol R note B: scatole [1, 7]: 3.5
Odor intensity with Nefopam, Ambrinol S note A: earthy [1, 8]: 0.5
Odor intensity with Nefopam, Ambrinol S note B: vetivert [1, 8]: 2
Odor intensity with Nefopam, Ambrinol racemic note A: earthy [1, 9]: 0
Odor intensity with Nefopam, Ambrinol racemic note B: α-pinene [1, 9]: 2.5
Odor intensity with Nefopam, Geosmin note A: earthy [1, 10]: 1
Odor intensity with Nefopam, Geosmin note B: camphoreous [1, 10]: 2.5
Odor intensity with Nefopam, Huminol note A: earthy [1, 11]: 1
Odor intensity with Nefopam, Huminol note B: camphoreous [1, 11]: 2
Odor intensity with Nefopam, Methyl Geosmin note A: earthy [1, 12]: 0.5
Odor intensity with Nefopam, Methyl Geosmin note B: α-pinene [1, 12]: 1.5
Odor intensity with Nefopam, Patchouli Oil note A: earthy [1, 13]: 0.5
Odor intensity with Nefopam, Patchouli Oil note B: α-pinene [1, 13]: 2.5
Intensity of the other olfactory notes associated to the different compounds in the presence of racemic nefopam [1, 14]: not significantly decreased
Typical earthy olfactory note associated with the tested compounds when smelled in the presence of racemic nefopam [1, 14]: strongly reduced

CCC1(O)C2(C)CCCC1(C)CC2 (centres unmarked) [Huminol, 8-ethyl-1,5-dimethylbicyclo[3.2.1]octan-8-ol]
Odor intensity without Nefopam, note A: earthy [1, 3]: 2.5
Odor intensity without Nefopam, note B: camphoreous [1, 4]: 2.5

CN1CCO[C@@H](c2ccccc2)c2ccccc2C1 [(+)-Nefopam, (S)-5-methyl-1-phenyl-1,3,4,6-tetrahydro-2,5-benzoxazocine]
Odor intensity of Geosmin with nefopam enantiomer as blocker, note A: earthy [1, 15]: 3
Odor intensity of Geosmin with nefopam enantiomer as blocker, note B: camphoreous [1, 15]: 3

CC1(O)CCC2C(=CCCC2(C)C)C1 (racemic) [Ambrinol racemic, 2,5,5-trimethyl-1,3,4,4a,6,7-hexahydronaphthalen-2-ol]
Odor intensity without Nefopam, note A: earthy [1, 3]: 1.5
Odor intensity without Nefopam, note B: α-pinene [1, 4]: 2.5

CCC1(O)C2(C)CCC(C2)C1(C)C (centres unmarked) [2-ethylfenchol, 6-ethyl-1,5,5-trimethylbicyclo[2.2.1]heptan-6-ol]
Odor intensity without Nefopam, note A: earthy [1, 3]: 3
Odor intensity without Nefopam, note B: camphoreous [1, 4]: 3.5

CC1(C)CCC=C2C[C@](C)(O)CC[C@@H]21 [Ambrinol S, (2R, 4aR)-(+)-2,5,5-Trimethyl-1,2,3,4,4a,5,6,7-octahydro-naphthalen-2-ol]
Odor intensity without Nefopam, note A: earthy [1, 3]: 2.5
Odor intensity without Nefopam, note B: vetivert [1, 4]: 1.5

CC1(C)CCC=C2C[C@@](C)(O)CC[C@H]21 [Ambrinol R, (2S, 4aS)-(−)-2,5,5-Trimethyl-1,2,3,4,4a,5,6,7-octahydro-naphthalen-2-ol]
Odor intensity without Nefopam, note A: earthy [1, 3]: 1
Odor intensity without Nefopam, note B: scatole [1, 4]: 3.5

CC1(C)CCCC2(C)CCCCC12O (centres unmarked) [Methyl Geosmin, 4,4,8a-trimethyl-1,2,3,4,5,6,7,8-octahydronaphthalen-4a-ol]
Odor intensity without Nefopam, note A: earthy [1, 3]: 2.5
Odor intensity without Nefopam, note B: α-pinene [1, 4]: 1.5

CN1CCO[C@H](c2ccccc2)c2ccccc2C1 [(−)-Nefopam, (R)-5-methyl-1-phenyl-1,3,4,6-tetrahydro-2,5-benzoxazocine]
Odor intensity of Geosmin with nefopam enantiomer as blocker, note A: earthy [1, 15]: 0
Odor intensity of Geosmin with nefopam enantiomer as blocker, note B: camphoreous [1, 15]: 3

CC1(O)CC2CCC1(C)C2(C)C (centres unmarked) [2-methylisoborneol, 1,2,7,7-Tetramethylbicyclo[2.2.1]heptan-2-ol]
Odor intensity without Nefopam, note A: earthy [1, 3]: 3
Odor intensity without Nefopam, note B: camphoreous [1, 4]: 0
Detection threshold (human nose) (human nose): 25 ng/L
